Measurements taken from patent US20030186943A1, “Substituted gamma-phenyl-delta-lactams and uses related thereto” (Inflazyme Pharmaceuticals Ltd., priority 1998, published 2003).

Experiments:
[1] = tested on: K562 chronic myelogenous leukemia cells; test: Anti-proliferative activity in K562 cells (3H-thymidine uptake); format: cell-based, human; details: for IC50: Homo sapiens, K562, 48 hours, 3H-thymidine, X marks this range, read-out: IC50 range (μM) >50
Protocol: 90 μL K562 cells (human chronic myelogenous leukemia cells) were seeded into sterile 96-well assay plates at a density of 1×10^5 cells/mL in RPMI 1640 supplemented with 10% FBS/2 mM L-glutamine. Samples to be tested were prepared in a sterile 96-well assay plate at 10×the final concentration desired. All sample dilutions contained equal amounts of DMSO to compensate for the % DMSO in the highest sample concentration used. Nine concentrations of test compound were examined for effects on growth up to a maximal concentration of 100 μM. 10 μL of the samples and controls (DMSO/normal growth control) were added to the aliquoted cells. The cells were incubated at 37° C./5% CO2 for 48 hours. Following 48 hour incubation, 20 μL of 3H-thymidine was added to each well for a final concentration of 1 μCi/mL. The cells were then incubated at 37° C./5% CO2 for 4 to 6 hours. Following 4-6 hour thymidine pulse, plates were wrapped in plastic and frozen in a −20° C. frost-free freezer overnight. Cells were harvested and ^3H-thymidine counts determined. In order to distinguish between cytotoxicity and cytostatic activity, growth curves were prepared where the average CPM value of the seeding density of cells was plotted on the same curve as the average CPM value for the maximum proliferation attained after 48 hours (DMSO growth control cells). The cells were diluted 1:2 for a concentration range of 7.8×10^3 cells/mL to 2×10^6 cells/mL. 90 μL of each cell dilution was seeded in sterile 96-well assay plated and allowed to equilibrate for approximately 4 hours at 37° C./5% CO2 prior to ^3H-thymidine pulse. The data in Table 15 was obtained as described above, and more specifically, K562 cells were seeded into 96-well plates at 1×10^5 cells/mL in RPMI 1640 supplemented with 10% FBS/2 mM L-glutamine. Various concentrations of test compound or vehicle (DMSO) was added and the cells were incubated at 37° C./5 CO2 for 48 hours. The cells were then pulsed at 37° C./5% CO2 for 4 to 6 hours with 1 μCi/mL ^3H-thymidine. Radioactivity incorporated into DNA was determined after harvesting onto glass fiber filters and scintillation counting.

[2] = tested on: mixed-lymphocyte-reaction; test: One way and two way mixed-lymphocyte-reaction (MLR); format: cell-based; details: read-out: inhibition of proliferation in MLR
naive CD4+ T-cells = test: Naive CD4+ T-cell proliferation (AND-TCR transgenic); format: cell-based, mouse
Protocol: AND-TCR transgenic mice (Kaye J. et al., Nature 341:746-749, 1989) were used to provide a source of naive-antigen specific CD4+T cells. The AND-T cell antigen receptor recognizes a peptide derived from pigeon cytochrome C (pcc) in the context of the I-E^k class II MHC molecule.
To examine the role of a test compound in naive CD4 T cell activation and proliferation, 1×10^5 AND-lymph node T cells were cultured with 1×10^6 irradiated B10.BR spleen cells in the presence of varying concentrations of pcc peptide (0-10 μM) in 96 well plates. Proliferation was assessed by ^3H thymidine incorporation. All assay conditions were conducted in triplicate. Cell surface activation phenotype of T cells was assessed by flow cytometric analysis.

[3] = tested on: collagen-induced arthritis (CIA) in the mouse; test: Murine collagen-induced arthritis model; format: in vivo
Protocol: Male DBA/1J mice (7-8 weeks of age) were immunized through a subcutaneous injection of 0.1 mL of a collagen-adjuvant emulsion (0.1 mg chick type II collagen in complete Freund's adjuvant) at the base of the tail. Mice were then randomly assigned to treatment or control groups in the following manner: Compound 43 (n=10); 45% 2-hydroxypropyl betacyclodextrin in 0.9% saline vehicle control (n-10); untreated (n=5) and dexamethasone positive control (n=5). After three weeks the animals were boosted with a second injection of chick type II collagen emulsified at 1.0 mg/mL in incomplete Freund's adjuvant. This second injection is required for reproducible induction of disease. In control animals, clinical signs of arthritis manifested as erythema and edema of the paws and tarsal/metatarsal joints usually appear within 1-2 weeks following the second immunization. Compounds were evaluated for their ability to delay the onset of or reduce the development of arthritis (prophylactic regime). Vehicle, dexamethasone positive control (0.075 mg/kg) and compound 43 (10 mg/kg) were administered twice daily (50 microliter per injection) by i.p. injection beginning on the day of the second collagen injection. The mice continued to receive doses until the last animal in the vehicle control group reached the seventh day of having established disease. In this particular case, this necessitated treatment for 25 days including the day of the booster injection.
The development of clinical arthritis (disease progression) was monitored daily after the second collagen injection. All four limbs were clinically evaluated by a trained observer unfamiliar (blinded) with the treatment group identity, and scored on a scale of 0-4 for disease severity (redness and swelling) according to the following criteria.
Inflammation was defined as any redness or swelling (enlargement) of any part of any paw. Established disease was defined as a qualitative score of paw inflammation of 2 or greater, that persists for at least 24 hours. In addition, paw widths for all four limbs were measured by a blinded observer daily using precision, constant tension calipers.
At the end of the study each animal was euthanized by an overdose of halothane anesthesia. Joints both distal to the knee and including the knee were dissected and analyzed by histology. Limb joints were fixed in 10% formalin buffer and decalcified in 10% formic acid for 48 hours, then processed for paraffin embedding. Serial sections (5-7 micrometer thick) were stained with haematoxylin and eosin (H & E). Histopathological alterations of the tarsal and metatarsal joints were graded “blind” by a certified pathologist and a score assigned based on a ranking system.
Mice were sacrificed on the 25th day after the second collagen injection corresponding to approximately the 10th day of established disease. All four paws from each animal in the study were removed, fixed and processed for blinded histopathological examination by an ACVP board certified veterinary pathologist. Joint pathology for each foot was classified on a scale of 0 to 4, with 0 being normal and 4 the most severely affected. Lesion grades were assigned based on the most severe lesion(s) present in the paw according to the following scale:
The individual paw scores were then summed to obtain a total for each animal with a maximum possible score for an animal being 16. Group values were obtained by averaging the individual animal scores.

[4] = 10 mg/kg i.p. twice daily, prophylactic, Day 25 after collagen boost

SMILES	IC50 [1]	inhibition at 20 µM [2]	inhibition at 5 µM (naive CD4+ T-cells; Mus musculus, T-cell, @5 μM)	reduction of arthritis score compared to the vehicle group ([3]; 10 mg/kg i.p. bid, day 25)	reduction of histopathological score compared to the vehicle group ([3]; 10 mg/kg i.p. bid, day 25)	reduction of paw edema compared to the vehicle group ([3]; 10 mg/kg i.p. bid, day 25)	Histopathological Score (range) ([3]; 10 mg/kg i.p. twice daily, Day 25, maximum possible score 16)	Paw Arthritis Score [3, 4]	Paw Edema (1/100 in.) [3, 4]	rate of disease progression as assessed by paw score ([3]; 10 mg/kg i.p., bid, last 10 days of the study)	inhibition of T-cell populations (naive CD4+ T-cells; all T-cell populations, control phosphodiesterase IV inhibitor)	effect on proliferative ability / cell cycle of K-562 cells [1]
COc1ccc([C@@H]2CCC(=O)OC2)cc1OC1CCCC1 [Compound 41]	> 50 µM	–	–	–	–	–	–	–	–	–	–	–
COc1cc(CC2C[C@@H](c3ccc(OC)c(OC4CCCC4)c3)COC2=O)ccc1O (stereo partly shown) [Compound 43]	–	≥ 50%	> 70%	35%	29%	42%	7.7 (1-15)	3.3 ± .64	0.052 ± .0051 1/100 in.	significantly reduced	–	–
COc1ccc(C2CNC(=O)C2)cc1OC1CCCC1 (stereo not shown) [Rolipram, reference compound]	> 50 µM	–	–	–	–	–	–	–	–	–	uniformly inhibitory	failed to have any effect
